In brackets after ≈: the same amount, converted by molar mass. Activity calls are given as the source filed them. The calls are words filed in the database; no cut-off is given here.
Key:
Cryptococcus neoformans [1] = assay: Antimicrobial activity against Cryptococcus neoformans USC1597 isolate after 72 hrs; format: functional
Cryptococcus neoformans [2] = assay: Antimicrobial activity against 10^7 CFU Cryptococcus neoformans USC1597 isolate intracranially infected in Hartley guinea pig assessed as decrease in brain […] count at 10 mg/kg, po BID administered 48 hrs postinfection for 13 days; format: functional
Cryptococcus neoformans [3] = assay: Antimicrobial activity against 9 x 10^6 CFU Cryptococcus neoformans USC1597 isolate intracranially infected in Hartley guinea pig assessed as kidney […] count per gram at 10 mg/kg, po BID administered 48 hrs postinfection for 13 days; format: functional
Cryptococcus neoformans [4] = assay: Antimicrobial activity against 9 x 10^6 CFU Cryptococcus neoformans USC1597 isolate intracranially infected in Hartley guinea pig assessed as cerebrospinal fluid […] count per ml at 10 mg/kg, po BID administered 48 hrs postinfection for 13 days; format: functional
Cryptococcus neoformans [5] = assay: Antimicrobial activity against 9 x 10^6 CFU Cryptococcus neoformans USC1597 isolate intracranially infected in Hartley guinea pig assessed as brain […] count per gram at 10 mg/kg, po BID administered 48 hrs postinfection for 13 days; format: functional
Cryptococcus neoformans [6] = assay: Antimicrobial activity against 10^7 CFU Cryptococcus neoformans USC1597 isolate intracranially infected in Hartley guinea pig assessed as decrease in cerebrospinal fluid […] count per ml at 10 mg/kg, po BID administered 48 hrs postinfection for 13 days; format: functional
Cryptococcus neoformans [7] = assay: Antimicrobial activity against 10^7 CFU Cryptococcus neoformans USC1597 isolate intracranially infected in Hartley guinea pig assessed as decrease in kidney […] count at 10 mg/kg, po BID administered 48 hrs postinfection for 13 days; format: functional, organism-based; design: dose 10 mg/kg; conditions: […]
Cryptococcus neoformans [8] = assay: Antimicrobial activity against 9 x 10^6 CFU Cryptococcus neoformans USC1597 isolate intracranially infected in Hartley guinea pig assessed as cerebrospinal fluid […] count per ml at 5 mg/kg, po BID administered 48 hrs postinfection for 13 days; format: functional
Cryptococcus neoformans [9] = assay: Antimicrobial activity against 10^7 CFU Cryptococcus neoformans USC1597 isolate intracranially infected in Hartley guinea pig assessed as decrease in brain […] count at 5 mg/kg, po BID administered 48 hrs postinfection for 13 days; format: functional
Cryptococcus neoformans [10] = assay: Antimicrobial activity against 10^7 CFU Cryptococcus neoformans USC1597 isolate intracranially infected in Hartley guinea pig assessed as decrease in brain […] count at 20 mg/kg, po BID administered 48 hrs postinfection for 13 days; format: functional
Cryptococcus neoformans [11] = assay: Antimicrobial activity against 9 x 10^6 CFU Cryptococcus neoformans USC1597 isolate intracranially infected in Hartley guinea pig assessed as brain […] count per gram at 5 mg/kg, po BID administered 48 hrs postinfection for 13 days; format: functional
Cryptococcus neoformans [12] = assay: Antimicrobial activity against 9 x 10^6 CFU Cryptococcus neoformans USC1597 isolate intracranially infected in Hartley guinea pig assessed as kidney […] count per gram at 5 mg/kg, po BID administered 48 hrs postinfection for 13 days; format: functional
Cryptococcus neoformans [13] = assay: Antimicrobial activity against 10^7 CFU Cryptococcus neoformans USC1597 isolate intracranially infected in Hartley guinea pig assessed as decrease in cerebrospinal fluid […] count at 20 mg/kg, po BID administered 48 hrs postinfection for 13 days; format: functional
Cryptococcus neoformans [14] = assay: Antimicrobial activity against 10^7 CFU Cryptococcus neoformans USC1597 isolate intracranially infected in Hartley guinea pig assessed as decrease in cerebrospinal fluid […] count at 5 mg/kg, po BID administered 48 hrs postinfection for 13 days; format: functional

C[C@@H]1[C@H](O)[C@@H](C)/C=C/C=C/C=C/C=C/C=C/C=C/C=C/[C@H](O[C@@H]2O[C@H](C)[C@@H](O)[C@H](N)[C@@H]2O)C[C@@H]2O[C@](O)(C[C@@H](O)C[C@@H](O)[C@H](O)CC[C@@H](O)C[C@@H](O)CC(=O)O[C@H]1C)C[C@H](O)[C@H]2C(=O)O [AMPHOTERICIN B]
MIC (Cryptococcus neoformans [1]): 0.25 µg/mL (≈ 0.271 µM)

OC(Cn1cncn1)(Cn1cncn1)c1ccc(F)cc1F [FLUCONAZOLE]
MIC (Cryptococcus neoformans [1]): 1 µg/mL (≈ 3.27 µM)
log10cfu (Cryptococcus neoformans [2]): 2
log10cfu (Cryptococcus neoformans [3]): 2.43
log10cfu (Cryptococcus neoformans [4]): 3.18
log10cfu (Cryptococcus neoformans [5]): 5.25
log10cfu (Cryptococcus neoformans [6]): 1
Activity (Cryptococcus neoformans [7]): Active

C[C@@H](c1ncncc1F)[C@](O)(Cn1cncn1)c1ccc(F)cc1F [VORICONAZOLE]
log10cfu (Cryptococcus neoformans [8]): 4.11
log10cfu (Cryptococcus neoformans [9]): 1
log10cfu (Cryptococcus neoformans [10]): 1.5
MIC (Cryptococcus neoformans [1]): 0.006 µg/mL (≈ 0.0172 µM)
log10cfu (Cryptococcus neoformans [2]): 1.5
log10cfu (Cryptococcus neoformans [11]): 5.99
log10cfu (Cryptococcus neoformans [12]): 3.01
log10cfu (Cryptococcus neoformans [13]): 1
log10cfu (Cryptococcus neoformans [6]): 1.6
log10cfu (Cryptococcus neoformans [14]): 0.7
